Laboratory results reported in the supplement of paper PMC10307832.

What was measured:
Experiment in all cases: relative viability (nuclei count vs DMSO), 5 days (fraction); higher = more cells survive
201T = test system: 201T
Outline: (§1)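 The day after seeding in 1536-well plates, lung cancer cell lines were treated by pin tool with a single drug, or with a fixed anchor-drug dose together with five library-drug doses (not always all listed) in √10 steps. After 5 days, a combined fix-and-stain solution (final 0.05% Triton X-100, 1% formaldehyde, 1 ug/ml Hoechst) was added. Nuclei counted on 4× images gave relative viability as treated counts over vehicle counts, reported as the median of duplicate plates.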

HARA = test system: HARA
Outline: as §1

HCC-44 = test system: HCC-44
Outline: as §1

NCI-H650 = test system: NCI-H650
Outline: as §1

LK-2 = test system: LK-2
Outline: as §1

SK-MES-1 = test system: SK-MES-1
Outline: as §1

NCI-H520 = test system: NCI-H520
Outline: as §1

NCI-H1666 = test system: NCI-H1666
Outline: as §1

HCC-15 = test system: HCC-15
Outline: as §1

HCC-827 = test system: HCC-827
Outline: as §1

COR-L23 = test system: COR-L23
Outline: as §1

NCI-H1437 = test system: NCI-H1437
Outline: as §1

COR-L 105 = test system: COR-L 105
Outline: as §1

NCI-H838 = test system: NCI-H838
Outline: as §1

NCI-H1792 = test system: NCI-H1792
Outline: as §1

A-427 = test system: A-427
Outline: as §1

NCI-H596 = test system: NCI-H596
Outline: as §1

NCI-H23 = test system: NCI-H23
Outline: as §1

EKVX = test system: EKVX
Outline: as §1

NCI-H1975 = test system: NCI-H1975
Outline: as §1

C[C@@H]1CN(CC(=O)Nc2ccc3c(c2)Cc2cccc(-c4cc(=O)cc(N5CCOCC5)o4)c2S3)C[C@H](C)O1 + CS(=O)(=O)CCNCc1ccc(-c2ccc3ncnc(Nc4ccc(OCc5cccc(F)c5)c(Cl)c4)c3c2)o1 [Lapatinib] (partner 2 µM)
relative viability (201T; first compound 0.04 µM): 1.07
relative viability (201T; first compound 0.1265 µM): 0.976
relative viability (201T; first compound 0.4 µM): 1.08
relative viability (201T; first compound 4 µM): 0.988
relative viability (HARA; first compound 0.04 µM): 0.732
relative viability (HARA; first compound 0.1265 µM): 0.613
relative viability (HARA; first compound 0.4 µM): 0.796
relative viability (HARA; first compound 4 µM): 0.738
relative viability (HCC-44; first compound 0.04 µM): 0.94
relative viability (HCC-44; first compound 0.1265 µM): 1.02
relative viability (HCC-44; first compound 0.4 µM): 1.07
relative viability (HCC-44; first compound 4 µM): 0.922
relative viability (NCI-H650; first compound 0.04 µM): 0.583
relative viability (NCI-H650; first compound 0.1265 µM): 0.852
relative viability (NCI-H650; first compound 0.4 µM): 0.857
relative viability (NCI-H650; first compound 4 µM): 0.697
relative viability (LK-2; first compound 0.1265 µM): 0.938
relative viability (LK-2; first compound 0.4 µM): 0.936
relative viability (LK-2; first compound 4 µM): 0.948
relative viability (SK-MES-1; first compound 0.04 µM): 0.463
relative viability (SK-MES-1; first compound 0.1265 µM): 0.53
relative viability (SK-MES-1; first compound 0.4 µM): 0.429
relative viability (SK-MES-1; first compound 4 µM): 0.409
relative viability (NCI-H520; first compound 0.04 µM): 0.983
relative viability (NCI-H520; first compound 0.1265 µM): 0.701
relative viability (NCI-H520; first compound 0.4 µM): 0.682
relative viability (NCI-H520; first compound 4 µM): 0.711
relative viability (NCI-H1666; first compound 0.04 µM): 0.745
relative viability (NCI-H1666; first compound 0.1265 µM): 0.667
relative viability (NCI-H1666; first compound 0.4 µM): 0.665
relative viability (NCI-H1666; first compound 4 µM): 0.579
relative viability (HCC-15; first compound 0.04 µM): 0.866
relative viability (HCC-15; first compound 0.1265 µM): 0.736
relative viability (HCC-15; first compound 0.4 µM): 0.929
relative viability (HCC-15; first compound 4 µM): 0.763
relative viability (HCC-827; first compound 0.04 µM): 0.172
relative viability (HCC-827; first compound 0.1265 µM): 0.191
relative viability (HCC-827; first compound 0.4 µM): 0.212
relative viability (HCC-827; first compound 4 µM): 0.19
relative viability (COR-L23; first compound 0.04 µM): 0.893
relative viability (COR-L23; first compound 0.1265 µM): 1.08
relative viability (COR-L23; first compound 0.4 µM): 1.12
relative viability (COR-L23; first compound 4 µM): 1.05
relative viability (NCI-H1437; first compound 0.04 µM): 0.758
relative viability (NCI-H1437; first compound 0.1265 µM): 0.703
relative viability (NCI-H1437; first compound 0.4 µM): 0.834
relative viability (NCI-H1437; first compound 4 µM): 0.702
relative viability (COR-L 105; first compound 0.04 µM): 0.28
relative viability (COR-L 105; first compound 0.1265 µM): 0.302
relative viability (COR-L 105; first compound 0.4 µM): 0.381
relative viability (COR-L 105; first compound 4 µM): 0.359
relative viability (NCI-H838; first compound 0.04 µM): 0.911
relative viability (NCI-H838; first compound 0.1265 µM): 0.911
relative viability (NCI-H838; first compound 0.4 µM): 0.883
relative viability (NCI-H838; first compound 4 µM): 0.781
relative viability (NCI-H1792; first compound 0.04 µM): 0.824
relative viability (NCI-H1792; first compound 0.1265 µM): 0.832
relative viability (NCI-H1792; first compound 0.4 µM): 0.856
relative viability (NCI-H1792; first compound 4 µM): 0.849
relative viability (A-427; first compound 0.04 µM): 0.898
relative viability (A-427; first compound 0.1265 µM): 1.05
relative viability (A-427; first compound 0.4 µM): 1.18
relative viability (A-427; first compound 4 µM): 1.01
relative viability (NCI-H596; first compound 0.04 µM): 1.07
relative viability (NCI-H596; first compound 0.1265 µM): 1.24
relative viability (NCI-H596; first compound 0.4 µM): 1.06
relative viability (NCI-H596; first compound 4 µM): 1.03
relative viability (NCI-H23; first compound 0.04 µM): 0.886
relative viability (NCI-H23; first compound 0.1265 µM): 1.16
relative viability (NCI-H23; first compound 0.4 µM): 1.01
relative viability (NCI-H23; first compound 4 µM): 1.04
relative viability (EKVX; first compound 0.04 µM): 0.271
relative viability (EKVX; first compound 0.1265 µM): 0.179
relative viability (EKVX; first compound 0.4 µM): 0.224
relative viability (EKVX; first compound 4 µM): 0.211
relative viability (NCI-H1975; first compound 0.04 µM): 0.871
relative viability (NCI-H1975; first compound 0.1265 µM): 0.803
relative viability (NCI-H1975; first compound 0.4 µM): 0.912
relative viability (NCI-H1975; first compound 4 µM): 0.754
